Data published in article PMC9182141, “Assay Development and Identification of the First Plasmodium falciparum 7,8-dihydro-6-hydroxymethylpterin-pyrophosphokinase Inhibitors” (Molecules, 2022).
Counter-ions that a name gives are not always drawn.

How the values were obtained:
[1] = test system: Vero cell line (African green monkey kidney cells); test: Cytotoxicity, sulforhodamine B assay, Vero cells; type: cell-based; settings: Chlorocebus sabaeus, 72 h, when no IC50 could be determined, highest tested concentration noted
[2] = target: T1, PfHPPK-GFP (Plasmodium falciparum, UniProt Q25704); test: DSF-GTP (GFP-tagged protein differential scanning fluorimetry) thermal shift; type: binding; settings: read-out: ΔTm (°C)
Description: In a preliminary screening experiment, buffer conditions were investigated, searching for conditions that provide the largest thermal shift in the presence of 1 mM ATP. DSF curves were recorded under a total of 17 different conditions, with variations in buffer nature and pH, salts nature and concentration, effect of reducing agent, MgSO4 and glycerol.
From there, protein binding properties of the hit compounds were assessed experimentally using the developed DSF-GTP assay. A total of 54 compounds were tested, including virtual screening hits and closely related structures. According to our protocol, each compound was mixed with PfHPPK-GFP and submitted to a temperature gradient from 30 °C to 90 °C at 1 °C/min while GFP fluorescence was recorded. The first derivative of the resulting curve was used to determine the melting temperature (Tm). For each set of experiments, a negative control containing DMSO was added, and ΔTm values were calculated for each compound vs. the DMSO control. […] Two compound families were identified as the most promising by our DSF-GTP assay: 5-phenylazo-2,4-diaminopyrimidines (series 1) and phenyltriazolyl-2-amino-4-pyrimidinone (series 2). In series 2, linkers of different lengths that separate the phenyl triazolyl and the pyrimidine moieties were included.
In a typical DSF-GTP experiment, a master mix containing buffer and PfHPPK-GFP was prepared in a microcentrifuge tube, corresponding to a final protein concentration of 20 μg/mL. Ligands of interest were dispensed in low-profile 96-well plates (Bio-Rad) to 1 mM final concentration, and the master mix was dispensed to a final volume of 50 μL per well. In these conditions, DMSO content was maintained constant at 2%. The microplate was sealed with adhesive film and mixed by shaking for 2 min at 800 rpm at RT. The microplate was then submitted to a DSF run on a CFX96 RT-PCR (Bio-Rad, Hercules, CA, USA). DSF program was designed by starting with a 3 min equilibration phase at 30 °C, followed by a temperature gradient of 1 °C/min until 90 °C, recording fluorescence every 0.5 °C. Fluorescence was recorded using the FAM channel (λex = 450–490 nm, λem = 510–530 nm). Curves were fitted using the Precision Melt Analysis software (Bio-Rad).

[3] = target: T1, PfHPPK-GFP; test: KinaseGlo enzyme inhibition assay; type: biochemical; settings: 1 mM compound, 10 μM HMDP and 10 μM ATP, 20 min at RT; read-out: Inhib. at 1 mM (%)
Description: For all the compounds displaying a measurable change of Tm, PfHPPK inhibition was recorded at 10 μM HMDP and ATP and 1 mM compound using the KinaseGlo assay. These conditions were chosen to be in the reported Km range for both HMDP and ATP substrates, enabling detection of both competitive and uncompetitive inhibitors. Compounds were incubated with HMDP, ATP and HPPK-GFP for 20 min at RT, followed by addition of the KinaseGlo reagent. After 10 min equilibration, luminescence was recorded, which directly reflects the quantity of ATP left in solution at the end of the reaction. Percentages of inhibition were calculated based on a DMSO positive control and a negative control lacking HPPK-GFP. Compounds structures, ΔTm and levels of inhibition appear in Table 1 and Table 2.
PfHPPK-GFP inhibition assay was carried using the KinaseGlo Plus kit (Promega, Madison, WI, USA). In a black 96-well plate were dispensed test compounds (1 μL of 50 mM DMSO stock), master mix (100 mM Tris pH 9, 10 mM β-mercapto ethanol, 10 mM MgSO4, 0.01% w/v BSA, 10 μM HMDP and 10 μM ATP). Reaction was initiated by addition of 2 μg of enzyme, reaching a total reaction volume of 50 μL, and reaction was allowed to proceed for 20 min at RT shaking at 300 rpm. Reaction was then quenched by addition of 50 μL KinaseGlo reagent and allowed to equilibrate for 10 min at RT shaking at 300 rpm. Luminescence was recorded on a Biotek Synergy H1 plate reader (Agilent, Santa Clara, CA, USA) using an integration time of 1 s per well. Percentage of inhibition was calculated related to a positive control experiment (no enzyme added) and a negative control experiment (no inhibitor added).

[4] = test system: KB cell line (human epithelial carcinoma cells); test: Cytotoxicity, sulforhodamine B assay, KB cells; type: cell-based; settings: 72 h, when no IC50 could be determined, highest tested concentration noted
[5] = test system: Plasmodium falciparum TM4/8.2 (drug sensitive); test: Antimalarial activity, [3H]-hypoxanthine incorporation assay, TM4/8.2; type: cell-based; settings: P. falciparum TM4/8.2 (drug sensitive), when no IC50 could be determined, highest tested concentration noted
Description: (§1) Finally, the various hit compounds were tested for their antimalarial activity against P. falciparum TM4/8.2 [26] and V1/S [27] strains. Parasite cultures were treated with test compounds at different concentrations, and antimalarial activity was measured using [3H]-hypoxanthine incorporation assay, according to our previously reported protocol. […] IC50 values could not be measured for other compounds. At this stage, there is no explanation for the difference in antiparasitic activity observed between TM4/8.2 and V1/S strains, and more investigations would be needed to conclude on this effect.
(§2) Compounds were tested for their antimalarial activity against P. falciparum TM4/8.2 [26] and V1/S [27] strains according to our previously reported protocol. In brief, parasite strains were maintained continuously in human erythrocytes in RPMI1640 supplemented with 25 mM HEPES pH 7.4, 0.2% NaHCO3, 40 µg/mL gentamicin and 8% human serum at 37 °C under 3% CO2. For in vitro antimalarial assay, parasite was treated with serial dilutions of the inhibitors, and parasite survival was determined using a modified microdilution radioisotope technique.

[6] = test system: Plasmodium falciparum V1/S (drug resistant); test: Antimalarial activity, [3H]-hypoxanthine incorporation assay, V1/S; type: cell-based; settings: P. falciparum V1/S (drug resistant), when no IC50 could be determined, highest tested concentration noted
Description: as §1, §2

[7] = Metabolic stability in human liver microsomes; settings: for microsomal CLint: human, liver microsomes
Description: (§3) Intrinsic clearance was also measured in both human and rat liver microsomes in order to assess sensitivity to metabolic degradation.
(§4) Metabolic stability of test compounds was determined in human and rat liver microsomes. The assay was adapted from a previously published method. Briefly, the test compounds were mixed with liver microsomes, and the metabolic reactions were initiated by the addition of NADPH. Acetonitrile containing an internal standard (labetalol) was added at 0, 5, 10, 30, and 60 min to stop the reactions. Samples were processed, and the remaining compounds in the reactions were detected using a LC-MS/MS. Distribution coefficient, solubility and polar surface area were predicted using Marvin software. Partition coefficient was predicted using ACD/Labs software.

[8] = Metabolic stability in rat liver microsomes; settings: for microsomal CLint: rat, liver microsomes
Description: as §3, §4

[9] = test system: PfHPPK; set-up: method as in PMID 19631695; settings: substrate of monofunctional PfHPPK; cited from earlier work

T1 sequence (Q25704 entry or part of it): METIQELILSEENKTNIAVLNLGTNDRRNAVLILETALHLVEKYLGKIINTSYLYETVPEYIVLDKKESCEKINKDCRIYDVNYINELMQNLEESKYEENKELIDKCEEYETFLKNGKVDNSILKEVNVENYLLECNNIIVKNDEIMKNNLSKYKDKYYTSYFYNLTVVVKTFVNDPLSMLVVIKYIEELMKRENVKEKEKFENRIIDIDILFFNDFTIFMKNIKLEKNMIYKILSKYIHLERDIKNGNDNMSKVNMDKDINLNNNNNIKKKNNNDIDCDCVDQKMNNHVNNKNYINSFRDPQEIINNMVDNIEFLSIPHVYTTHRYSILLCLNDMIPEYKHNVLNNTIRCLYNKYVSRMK

Compound | IC50 [1] [µM] | ΔTm at 1000 µM [2] [°C] | inhibition at 1000 µM [3] [%] | IC50 [4] [µM] | IC50 [5] [µM] | IC50 [6] [µM] | IC50 ([6]; Plasmodium falciparum) [µM] | microsomal CLint [7] [µL/min/mg] | microsomal CLint [8] [µL/min/mg] | CLint (HLM) ([7]; human liver microsomes, NADPH) [µL/min/mg] | CLint (RLM) ([8]; rat liver microsomes, NADPH) [µL/min/mg] | Km [9] [µM]
COc1nc(N)nc(N)c1/N=N/c1cccc([N+](=O)[O-])c1 [Compound 1, (E)-6-Methoxy-5-((3-nitrophenyl)diazenyl)pyrimidine-2,4-diamine] | > 100 | -1 | 2.5 ± 1.4 | > 100 | > 100 | 21 | 21 |  |  |  |  | 
COC(=O)c1cccc(/N=N/c2c(N)nc(N)nc2Cl)c1 [Compound 2, Methyl (E)-3-((2,4-diamino-6-chloropyrimidin-5-yl)diazenyl) benzoate] | > 100 | -1 | 11 ± 4.8 | > 100 | > 100 | 89.2 | 89.2 |  |  |  |  | 
COc1nc(N)nc(N)c1/N=N/c1cccc(C(=O)O)c1 [Compound 3, (E)-3-((2,4-Diamino-6-methoxypyrimidin-5-yl)diazenyl) benzoic acid] | > 100 | -1 | 23.3 ± 4.8 | > 100 | > 50 |  | > 50 | < 3 | < 3 |  |  | 
Nc1nc(N)c(/N=N/c2ccccc2)c(N)n1 [Compound 4, (E)-5-(Phenyldiazenyl)pyrimidine-2,4,6-triamine] | 29.6 | -1 | 46 ± 7.5 | 62.4 | 75.4 |  | > 50 | 363 | 82.4 |  |  | 
Nc1nc(N)c(/N=N/c2cccc(C(=O)O)c2)c(N)n1 [Compound 5, (E)-3-((2,4,6-Triaminopyrimidin-5-yl)diazenyl)benzoic acid] |  | -1 | 14.6 ± 3.2 |  | > 10 |  | > 10 |  |  |  |  | 
Cc1nc(N)[nH]c(=O)c1Cc1cn(-c2ccc(C(=O)O)cc2)nn1 [Compound 6, 2-Amino-6-methyl-5-((1-(4-(carboxy)phenyl)-1H-1,2,3-triazol-4-yl)methyl)pyrimidin-4(3H)-one] | > 25 | -1 | 1.8 ± 0.6 | > 25 | > 25 |  | > 25 |  |  |  |  | 
Cc1nc(N)[nH]c(=O)c1Cc1cn(-c2cccc(C(=O)O)c2)nn1 [Compound 7, 2-Amino-6-methyl-5-((1-(3-(carboxy)phenyl)-1H-1,2,3-triazol-4-yl)methyl)pyrimidin-4(3H)-one] | > 25 | -1 | 9.2 ± 1.5 | > 25 | > 25 |  | > 25 |  |  |  |  | 
CCc1nc(N)[nH]c(=O)c1Cc1cn(-c2ccc(C(=O)O)cc2)nn1 [Compound 8, 2-Amino-6-ethyl-5-((1-(4-(carboxy)phenyl)-1H-1,2,3-triazol-4-yl)methyl)pyrimidin-4(3H)-one] | > 50 | -1.2 ± 0.3 | 6.9 ± 2 | > 50 | > 50 |  | > 50 |  |  |  |  | 
CCc1nc(N)[nH]c(=O)c1Cc1cn(-c2cccc(C(=O)O)c2)nn1 [Compound 9, 2-Amino-6-ethyl-5-((1-(3-(carboxy)phenyl)-1H-1,2,3-triazol-4-yl)methyl)pyrimidin-4(3H)-one] | > 50 | -1 | 16.4 ± 2.9 | > 50 | > 50 |  | > 50 |  |  |  |  | 
CCc1nc(N)[nH]c(=O)c1Cc1cn(-c2cccc([N+](=O)[O-])c2)nn1 [Compound 10, 2-Amino-6-ethyl-5-((1-(3-(nitro)phenyl)-1H-1,2,3-triazol-4-yl)methyl)pyrimidin-4(3H)-one hydrochloride] | > 50 | -1.2 ± 0.3 | 12.1 ± 4 | > 50 | > 50 |  | > 50 |  |  |  |  | 
CCc1nc(N)[nH]c(=O)c1CCc1cn(-c2ccc(C(=O)O)cc2)nn1 [Compound 11, 2-Amino-6-ethyl-5-(2-(1-(4-(carboxy)phenyl)-1H-1,2,3-triazol-4-yl)ethyl)pyrimidin-4(3H)-one hydrochloride] | > 50 | -1.3 ± 0.3 | 34.9 ± 5.5 | > 50 | > 50 |  | > 50 | < 3 | 6.91 |  |  | 
CCc1nc(N)[nH]c(=O)c1CCc1cn(-c2cccc(C(=O)O)c2)nn1 [Compound 12, 2-Amino-6-ethyl-5-(2-(1-(3-(carboxy)phenyl)-1H-1,2,3-triazol-4-yl)ethyl)pyrimidin-4(3H)-one hydrochloride] | > 50 | -1.3 ± 0.3 | 24.5 ± 2.3 | > 50 | > 50 |  | > 50 |  |  |  |  | 
CCc1nc(N)[nH]c(=O)c1CCCc1cn(-c2ccc(C(=O)O)cc2)nn1 [Compound 13, 2-Amino-6-ethyl-5-(3-(1-(4-(carboxy)phenyl)-1H-1,2,3-triazol-4-yl)propyl)pyrimidin-4(3H)-one hydrochloride] | > 50 | -1.5 | 24.9 ± 3.1 | > 50 | > 50 |  | > 50 | < 3 | 7.38 |  |  | 
CCc1nc(N)nc(N)c1OCCCOc1ccccc1CCC(=O)O [Compound P218, reference compound] |  |  |  |  |  |  |  |  |  | <3 | <3 | 
Nc1nc(O)c2c(n1)NCC(CO)=N2 [HMDP, 2-amino-4-hydroxy-6-hydroxymethyl-7,8-dihydropteridine] |  |  |  |  |  |  |  |  |  |  |  | 2.1
